In the NIST ThermoML archive (doi:10.1016/j.fluid.2018.09.024):
Numbers after ± are expanded uncertainties.

Experiment: activity coefficient (dimensionless); of the first substance listed, at infinite dilution; xn = mol fraction of the nth substance listed
Conditions: 101.33 kPa, Liquid, Chromatography, x1 = 0

SMILES | activity coefficient (328.15 K) | activity coefficient (338.15 K) | activity coefficient (348.15 K) | activity coefficient (358.15 K) | activity coefficient (368.15 K) | activity coefficient (378.15 K) | activity coefficient (318.15 K)
C=CCCCCCC [oct-1-ene] + CCCCCCCCCCCC[N+](C)(C)CCOc1ccccc1.N#C[N-]C#N | 4.87 ± 0.33 | 4.98 ± 0.34 | 5.09 ± 0.35 | 5.2 ± 0.35 | 5.29 ± 0.36 | 5.38 ± 0.37 | –
CCCCCCC [heptane] + CCCCCCCCCCCC[N+](C)(C)CCOc1ccccc1.O=S(=O)([N-]S(=O)(=O)C(F)(F)F)C(F)(F)F | 3.52 ± 0.24 | 3.6 ± 0.25 | 3.68 ± 0.25 | 3.75 ± 0.26 | 3.83 ± 0.26 | – | 3.44 ± 0.23
